Data published in patent US20230140798A1, “SYNTHETIC PEPTIDES DIRECTED AGAINST THE METABOTROPIC GLUTAMATE RECEPTOR 5” (Lactocore, Inc., priority 2020, published 2023).
Entries after “also recorded” stand apart in the source; their conditions may differ.

Experiments:
mGluR5 (GRM5) = test: HEK 293 cells mGluR5-luciferase reporter assay (β-arrestin2 recruitment); assay type: cell-based, human; conditions: for effect on CHPG-induced mGluR5 activity (luciferase signal): + 1 mM CHPG
Excerpt: The methodology was previously described by Kroeze (Kroeze et al. (2015). PRESTO-Tango as an open-source resource for interrogation of the druggable human GPCRome. Nat. Struct. Mol. Biol. 22(5): 362) and the principle is illustrated in FIG. 19. Briefly, the cells of HEK293 cell line are transfected with 3 types of plasmids:
Plasmid 1: encodes fusion GRMS-tTA protein. The linker between GRMS and tTA is sensitive to TEV-protease (www.addgene.org/66390/).
Plasmid 2: encodes β-arrestin2/TEV-protease fusion protein (www.addgene.org/107245/).
Plasmid 3: luciferase tTA reporter (www.addgene.org/64127/).
Sufficient quantities of fusion proteins were produced during 24 hours after transfection. mGluR5 (GRM5) activation by a selective agonist CHPG (SEQ ID NO: 18) (1) leads to recruiting of β-arrestin2/TEV-protease fusion protein (2), that cleaves the linker between GRM5 and tTA (3). Released tTA transcription factor (4) binds with its consensus sites in tTA luciferase reporter plasmid (5) that results in activation of luciferase expression. The activity of luciferase can be used to estimate the activity of mGluR5, and application of negative allosteric modulators of mGluR5 should lead to a dose-dependent decrease in luciferase activity in this system (FIG. 19).
Sufficient quantities of the plasmids were produced using standard applications before the experiment. HEK293 cells were co-transfected with three plasmids using polyethylenimine (PEI, 408727, Sigma-Aldrich, USA) 24 hours prior to agonists application. Transfected cells were treated with agonists/antagonists and incubated overnight (16 hours). Antagonists were introduced 10 minutes prior to agonists. Luciferase test was performed using Promega™ Luciferase Assay Systems Kit (PR-E1500, Promega, USA) according to the manufacturer's protocol.
CHPG—orthosteric selective mGlu5 receptor agonist (HB0033, HelloBio, USA). […]

Sprague-Dawley rats = test: Modified Porsolt Forced Swim test (FST), rats; assay type: in vivo; conditions: i.p.; group name 5 mg/kg, test substance 20 mg/kg
Method: As part of this modification, two tests are carried out within two days. The installation is a transparent cylinder, 30 cm high, 10 cm in diameter and filled with water (water temperature 21° C.-23° C.) to a mark at a height of 25 cm. On the first day, each animal is placed in the apparatus for ten minutes. Behavioral parameters are not recorded. The animals are placed in the cylinder for 10 minutes again on the second day. The duration of active (vigorous movements with all paws) and passive (weak strokes with hind legs) swimming, as well as immobility (immobilization) (Porsolt et al. (1977) Behavioral despair in mice: a primary screening test for antidepressants. Arch Int Pharmacodyn Ther. 229(2):327-36) are recorded. After each test, the rats are placed in a heated cage until dry. The behavioral indicators in this test are processed using the Real Timer Program developed by Open Science. The sequence of events, their duration, as well as conduct basic statistical data processing are recorded.

human mGluR5 = target: T1, human mGluR5 (Homo sapiens, UniProt P41594); test: Sodium glutamate-evoked [Ca^2+] responses in CHO-mGluR5 cells (calcium-flux imaging); assay type: cell-based
T1 construct: expressed in transfected cells; host or cells: CHO cells carrying pcDNA6/TR (T-REx system)
Excerpt: CHO-mGluR5 cells with tetracycline-induced stable expression of human mGluR5.
The CHO cell line stably expressing human mGluR5 was generated using T-Rex System (Thermo Fisher Scientific Inc., Waltham, Mass., USA) according to the manufacturer's' instructions. Briefly, cDNA encoding human mGluR5 was subcloned into inducible expression vector pcDNA4/TO and was transfected into CHO cells carrying regulatory vector pcDNA6/TR that expresses the tetracycline repressor. After 2 weeks of selection using Blasticidin (5 µg/ml) and zeocin (250 µg/ml), pools of cells were screened for the expression of mGluR5 in the agonist-induced [Ca^2+] uptake assay. Positive cells were expanded and used. mGluR5 expression was induced by adding tetracycline (up to 1 µg/ml) 16 h before testing.
Fluorescent assays were performed using NOVOstar (BMG LABTECH, Ortenberg, Germany). CHO-mGluR5 cells were seeded into black-walled clear-bottomed 96-well plates at a density of 75,000 cells per well (complete media without antibiotics and containing 1 µg/ml of tetracycline to induce receptor expression) and were cultured overnight at 37° C. […] After a 3-min incubation at 37° C., changes in cell fluorescence ([…]) were monitored before and after the addition of the mGLuR5 agonist (1 mM sodium glutamate—Glu-Na). […]

Wistar rats [1] = test: Open Field test in Acute Foot Shock (AFS) stress model; assay type: in vivo; conditions: 4.5 mg/kg i.p. daily for ten days after AFS
Method: (§1) KEDV (SEQ ID NO: 4) and RAHE (SEQ ID NO: 3) (Lactocore Inc.) were administered intranasally (i.n), daily for 10 days at a dose of 1 mg/kg and 5 mg/kg. Peptides were prepared freshly each day in saline. The solution for i.n. administration of 5 mg/kg in a volume of 15 μl (single administration) contained 1.3 mg KEDV (SEQ ID NO: 4) or RAHE (SEQ ID NO: 3), and a solution for intranasal administration of 1 mg/kg in a volume of 10 μl (single administration) contained 0.26 mg KEDV (SEQ ID NO: 4) or RAHE (SEQ ID NO: 3).
(§2) The tetracyclic antidepressant Maprotiline (MAP, “Lyudiomil”), was used as a drug of comparison. Animals received a daily intraperitoneal injection (i.p) of MAP for ten days (M9651, Merck, in a dose of 4.5 mg/kg, dissolved in saline, 250 μl per administration).
(§3) Stimulation was performed automatically using a software randomizer.
The OF test is a classic method for assessing the level of motor activity and exploratory behavior of rodents in new stressogenic conditions. The test was performed in a cage of 90×90×45 cm without a roof, the floor of which was laid out on squares 15×15 cm and lit from above by a 60 W lamp. On the 5th day after stressing in the LH model, the rat was placed in the center of the OF. The following parameters were measured for 5 minutes: latency to start of moving, the number of crossed squares, the duration of rears and freezing.

Wistar rats [2] = test: Elevated Plus Maze test in Acute Foot Shock (AFS) stress model; assay type: in vivo
Method: as §1, §2, §3
EPM testing allows characterizing the behavior of rodents under the variable stress conditions, which makes it possible to assess the level of animal anxiety and anxiolytic effects of drugs. On the 6th day after the experimental exposure, the rats were tested one at a time for 5 min in the EPM installation, located at a height of 75 cm above the floor, and consisting of 2 open illuminated and 2 closed arms with exits. The time spent by the animal inside and outside the closed arms (in the open arms and in the center), the number of transitions between the arms, the number of stretch-attended postures were evaluated. Usually, animals tend to stay in the closed arms, anxiolytic treatment results in an increment of the time spent on the open arms of the maze (Pellow et al. (1985). Validation of open: closed arm entries in an elevated plus-maze as a measure of anxiety in the rat. J. Neurosci. Methods, 14(3), 149-167; Walf et al. (2007). The use of the elevated plus maze as an assay of anxiety-related behavior in rodents. Nat. Protoc., 2(2), 322-328).

Wistar rats [3] = test: Dexamethasone test (DXMT), serum corticosterone, AFS model; assay type: in vivo; conditions: 4.5 mg/kg i.p. daily, after AFS; DXM 10 μg/kg
Method: as §3
Evaluation of the stress-evoked release of glucocorticoid hormones (corticosterone, an analog of cortisol in humans) and its suppression by the introduction of synthetic glucocorticosteroid was performed on the 9-10th day after the development of LH in a two-day dexamethasone test according to the scheme, taking into account the specificity of the circadian rhythm of HPA axis function in rats (Zhukov (1993). The dexamethasone suppression test in genetically different rats exposed to inescapable and escapable electric shocks. Psychoneuroendocrinology, 18(7), 467-474.].
On the first day of the test (DXMT1) at 10:00 AM, animals were injected (i.p.) with saline, then at 04:00 PM on the same day peripheral blood samples were taken to determine the basal level of the hormone, which caused stress, and 30 minutes after taking the rat from the cage and receiving initial sample, re-taken blood to measure hormone stress level.
To study the sensitivity of the HPA system to feedback signals, rats were injected with dexamethasone (DXM, 10 μg/kg, i.p.) the next day (DXMT2) at 10 AM. The procedure for taking blood from the tail vein was repeated after 6 and 6.5 hours. The corticosterone content was determined by enzyme-linked immunosorbent assay with reagent kits “Corticosterone-ELISA” (“Hema”, RF) in two parallel samples.

[4] = MAP 4.5 mg/kg i.p., AFS, overall median 0.00

T1 sequence (P41594 21-1212): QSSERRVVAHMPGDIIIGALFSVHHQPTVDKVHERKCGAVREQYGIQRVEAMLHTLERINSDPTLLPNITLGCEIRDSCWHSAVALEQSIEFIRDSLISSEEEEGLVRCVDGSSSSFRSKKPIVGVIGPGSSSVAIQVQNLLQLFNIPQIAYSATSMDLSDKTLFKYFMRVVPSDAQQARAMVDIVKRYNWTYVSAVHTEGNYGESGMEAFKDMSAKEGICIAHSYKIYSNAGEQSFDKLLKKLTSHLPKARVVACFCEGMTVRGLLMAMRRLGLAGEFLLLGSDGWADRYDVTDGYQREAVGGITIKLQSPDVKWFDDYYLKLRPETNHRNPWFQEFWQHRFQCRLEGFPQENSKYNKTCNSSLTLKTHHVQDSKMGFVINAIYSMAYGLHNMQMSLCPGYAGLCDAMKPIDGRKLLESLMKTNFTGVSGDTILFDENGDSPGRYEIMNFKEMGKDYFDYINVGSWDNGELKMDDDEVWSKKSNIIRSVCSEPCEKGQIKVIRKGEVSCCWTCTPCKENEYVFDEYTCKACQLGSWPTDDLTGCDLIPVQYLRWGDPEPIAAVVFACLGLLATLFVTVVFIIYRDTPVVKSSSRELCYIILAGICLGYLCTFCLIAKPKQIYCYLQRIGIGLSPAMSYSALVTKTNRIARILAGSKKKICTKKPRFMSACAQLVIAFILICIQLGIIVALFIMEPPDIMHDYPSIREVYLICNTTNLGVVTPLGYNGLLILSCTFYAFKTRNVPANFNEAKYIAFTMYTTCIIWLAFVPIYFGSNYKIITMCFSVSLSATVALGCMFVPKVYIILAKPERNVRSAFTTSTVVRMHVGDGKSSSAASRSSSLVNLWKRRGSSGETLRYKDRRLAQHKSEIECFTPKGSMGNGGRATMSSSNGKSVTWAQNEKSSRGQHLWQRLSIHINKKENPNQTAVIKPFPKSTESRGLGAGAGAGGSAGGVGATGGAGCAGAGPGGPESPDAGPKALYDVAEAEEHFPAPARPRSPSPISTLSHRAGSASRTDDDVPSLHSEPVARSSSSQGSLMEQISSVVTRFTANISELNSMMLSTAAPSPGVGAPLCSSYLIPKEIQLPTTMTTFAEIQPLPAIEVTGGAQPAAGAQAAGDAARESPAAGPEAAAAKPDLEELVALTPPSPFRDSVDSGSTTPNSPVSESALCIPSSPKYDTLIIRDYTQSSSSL

## NC(C(=O)O)c1cc(O)ccc1Cl (stereo not shown) [CHPG]
mGluR5 (GRM5); 1 mM, 16-hours incubation
  luciferase signal (mGluR5 activation): significant induction of luciferase signal

## CNCCC(Oc1ccc(C(F)(F)F)cc1)c1ccccc1 (stereo not shown) [Fluoxetine, fluoxetine]
Sprague-Dawley rats
  antidepressant-like properties in FST: not observed

## N[C@@H](CCC(=O)[O-])C(=O)[O-].[Na+].[Na+] [GluNa, sodium glutamate]
Human mGluR5; 1 mM, CHO-mGluR5 cells
  intracellular [Ca^2+] levels vs buffer: elevated intracellular [Ca^2+] levels

## CNCCCC12CCC(c3ccccc31)c1ccccc12 [MAP, Maprotiline]
Wistar rats [1]
  freezing behavior vs stressed saline-treated animals: significant reduction of freezing behavior
Wistar rats [2]; 4.5 mg/kg i.p. daily, after AFS
  proportion of animals that went to the open arms of the maze: 78%
Wistar rats [2]; MAP 4.5 mg/kg i.p., AFS
  time in open arms <=Median: obs. − exp.: −2.86
  time in open arms >Median: obs. − exp.: 2.86
Wistar rats [2]; [4]
  time in open arms <=Median: observed (animals): 2.00
  time in open arms >Median: observed (animals): 7.00
Wistar rats [3]
  suppression of stress CS levels in serum by DXM: more than 50%

## Cc1cccc(C#Cc2ccccc2)n1 [MPEP, 2-methyl-6-(phenylethynyl)-pyridine]
Human mGluR5; pre-treatment 0.1, 1, 10, 100 μM, 1 mM GluNa
  effect on GluNa-induced activation: abolished GluNa-induced activation

## Cc1ccc(O)c(N=Nc2ccccc2)n1 [SIB 1757]
mGluR5 (GRM5); 10 μM
  effect on CHPG-induced mGluR5 activity (luciferase signal): inhibition of mGluR5 activity; also recorded: significant decrease of luciferase signal
mGluR5 (GRM5); 100 μM
  effect on CHPG-induced mGluR5 activity (luciferase signal): inhibition of mGluR5 activity
